Tests used:
HT-29 = assay: Cytotoxicity against human HT-29 cells assessed as inhibition of cell growth incubated for 48 hrs by CCK-8 assay; assay type: functional, cell-based; settings: HT-29, 48 h
HCT-116 = assay: Cytotoxicity against human HCT-116 cells assessed as inhibition of cell growth incubated for 48 hrs by CCK-8 assay; assay type: functional, cell-based; settings: HCT-116, 48 h
[1] = Cytotoxicity against human NCM460 cells assessed as inhibition of cell growth incubated for 48 hrs by CCK-8 assay; assay type: toxicity, cell-based

Compound	IC50 (HT-29) [µM]	IC50 (HCT-116) [µM]	IC50 at 48 h [1] [µM]
COC1=C[C@@H]2[C@@H]3Cc4ccc(OC)c(OC(C)=O)c4[C@]2(CCN3C)CC1=O	> 50	> 50	> 50
COC1=C[C@@H]2[C@@H]3Cc4ccc(OC)c(OC(=O)c5ccc(Cl)cc5)c4[C@]2(CCN3C)CC1=O	25.1	> 50	> 50
COC1=C[C@@H]2[C@@H]3Cc4ccc(OC)c(OC(=O)/C=C/C(F)(F)F)c4[C@]2(CCN3C)CC1=O	5.99	6.01	16
CCO/C=C/C(=O)Oc1c(OC)ccc2c1[C@@]13CCN(C)[C@@H](C2)[C@H]1C=C(OC)C(=O)C3	> 50	> 50	> 50
C=CC(=O)NCCCCCCCCCCCC(=O)Oc1c(OC)ccc2c1[C@@]13CCN(C)[C@@H](C2)[C@H]1C=C(OC)C(=O)C3	7.14	20.2	33.2
C=C(Cl)C(=O)NCCCCCCCC(=O)Oc1c(OC)ccc2c1[C@@]13CCN(C)[C@@H](C2)[C@H]1C=C(OC)C(=O)C3	17.8	19.6	> 50
C=C(C)C(=O)Oc1c(OC)ccc2c1[C@@]13CCN(C)[C@@H](C2)[C@H]1C=C(OC)C(=O)C3	> 50	61.4	> 50
COC1=C[C@@H]2[C@@H]3Cc4ccc(OC)c(OC(=O)CCl)c4[C@]2(CCN3C)CC1=O	> 50	33.3	> 50
C=CC(=O)NCCCCCCCC(=O)Oc1c(OC)ccc2c1[C@@]13CCN(C)[C@@H](C2)[C@H]1C=C(OC)C(=O)C3	> 50	> 50	> 50
COCC(=O)Oc1c(OC)ccc2c1[C@@]13CCN(C)[C@@H](C2)[C@H]1C=C(OC)C(=O)C3	> 50	> 50	> 50
CCCC(=O)Oc1c(OC)ccc2c1[C@@]13CCN(C)[C@@H](C2)[C@H]1C=C(OC)C(=O)C3	> 50	> 50	> 50
COC1=C[C@@H]2[C@@H]3Cc4ccc(OC)c(OC(=O)c5ccc(OC)cc5)c4[C@]2(CCN3C)CC1=O	> 50	> 50	> 50
COC1=C[C@@H]2[C@@H]3Cc4ccc(OC)c(OC(=O)CCCCCCCNC(=O)/C=C/C(F)(F)F)c4[C@]2(CCN3C)CC1=O	> 50	> 50	> 50
COC1=C[C@@H]2[C@@H]3Cc4ccc(OC)c(OC(=O)/C=C/c5ccccc5)c4[C@]2(CCN3C)CC1=O	> 50	> 50	> 50
COC1=C[C@@H]2[C@@H]3Cc4ccc(OC)c(OC(=O)C5CC5)c4[C@]2(CCN3C)CC1=O	> 50	> 50	> 50
C=C(Cl)C(=O)NCCC(=O)Oc1c(OC)ccc2c1[C@@]13CCN(C)[C@@H](C2)[C@H]1C=C(OC)C(=O)C3	9.45	4.76	34.5
COC1=C[C@@H]2[C@@H]3Cc4ccc(OC)c(O)c4[C@]2(CCN3C)CC1=O [SINOMENINE]	> 50	> 50	> 50
C=CC(=O)Oc1c(OC)ccc2c1[C@@]13CCN(C)[C@@H](C2)[C@H]1C=C(OC)C(=O)C3	9.12	7.04	32.5
COC1=C[C@@H]2[C@@H]3Cc4ccc(OC)c(OC(=O)CCCCCCCCCCCNC(=O)/C=C/C(F)(F)F)c4[C@]2(CCN3C)CC1=O	8.71	7.84	22.9
COC1=C[C@@H]2[C@@H]3Cc4ccc(OC)c(OC(=O)c5ccccc5)c4[C@]2(CCN3C)CC1=O	> 50	> 50	> 50
C=CC(=O)NCCC(=O)Oc1c(OC)ccc2c1[C@@]13CCN(C)[C@@H](C2)[C@H]1C=C(OC)C(=O)C3	> 50	> 50	> 50
C=CCCC(=O)Oc1c(OC)ccc2c1[C@@]13CCN(C)[C@@H](C2)[C@H]1C=C(OC)C(=O)C3	> 50	> 50	> 50
CCCCCCCCCCCC(=O)Oc1c(OC)ccc2c1[C@@]13CCN(C)[C@@H](C2)[C@H]1C=C(OC)C(=O)C3	4	5.69	9.85
COC1=C[C@@H]2[C@@H]3Cc4ccc(OC)c(OC(=O)C(C)C)c4[C@]2(CCN3C)CC1=O	> 50	> 50	> 50
C/C=C/C(=O)Oc1c(OC)ccc2c1[C@@]13CCN(C)[C@@H](C2)[C@H]1C=C(OC)C(=O)C3	> 50	> 50	> 50
C=C(Cl)C(=O)Oc1c(OC)ccc2c1[C@@]13CCN(C)[C@@H](C2)[C@H]1C=C(OC)C(=O)C3	8.66	12.9	35.2
CCCCCCC(=O)Oc1c(OC)ccc2c1[C@@]13CCN(C)[C@@H](C2)[C@H]1C=C(OC)C(=O)C3	31.9	> 50	> 50
COC1=C[C@@H]2[C@@H]3Cc4ccc(OC)c(OC(=O)CCNC(=O)/C=C/C(F)(F)F)c4[C@]2(CCN3C)CC1=O	> 50	> 50	> 50

Source: ChEMBL document CHEMBL5505993, “Identification of a ferritinophagy inducer via sinomenine modification for the treatment of colorectal cancer” (Eur J Med Chem, 2024)
